Reference: publication PMC11396129, “Oxindole–benzothiazole hybrids as CDK2 inhibitors and anticancer agents: design, synthesis and biological evaluation” (BMC Chemistry, 2024)

Tests used:
Assay type in all cases: cell-based, human
PC-3 = assay: NCI 60 panel growth inhibition (SRB), prostate cancer; conditions: PC-3, 10 μM
Summary of the method: (§1)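 24 h post-seeding: Tz fixation, drug added at five concentrations. Adherent lines stopped with cold TCA, washed, dried, SRB read. Growth % vs control and Tz; TGI at Ti = Tz.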

DU-145 = assay: as above; conditions: DU-145, 10 μM
Summary of the method: as §1

SK-MEL-5 = assay: NCI 60 panel growth inhibition (SRB), melanoma; conditions: SK-MEL-5, 10 μM
Summary of the method: as §1

MDA-MB-435 = assay: NCI 60 panel growth inhibition (SRB), melanoma; conditions: MDA-MB-435, 10 μM
Summary of the method: as §1

LOX IMVI = assay: NCI 60 panel growth inhibition (SRB), melanoma; conditions: 10 μM
Summary of the method: as §1

UACC-62 = assay: NCI 60 panel growth inhibition (SRB), melanoma; conditions: UACC-62, 10 μM
Summary of the method: as §1

SK-MEL-28 = assay: NCI 60 panel growth inhibition (SRB), melanoma; conditions: SK-MEL-28, 10 μM
Summary of the method: as §1

UACC-257 = assay: NCI 60 panel growth inhibition (SRB), melanoma; conditions: UACC-257, 10 μM
Summary of the method: as §1

MALME-3M = assay: NCI 60 panel growth inhibition (SRB), melanoma; conditions: 10 μM
Summary of the method: as §1

M14 = assay: NCI 60 panel growth inhibition (SRB), melanoma; conditions: M14, 10 μM
Summary of the method: as §1

MDA-MB-468 = assay: NCI 60 panel growth inhibition (SRB), breast cancer; conditions: MDA-MB-468, 10 μM
Summary of the method: as §1

HS 578T = assay: as above; conditions: 10 μM
Summary of the method: as §1

MCF7 = assay: as above; conditions: MCF7, 10 μM
Summary of the method: as §1

T-47D = assay: as above; conditions: 10 μM
Summary of the method: as §1

BT-549 = assay: as above; conditions: BT-549, 10 μM
Summary of the method: as §1

MDA-MB-231/ATCC = assay: as above; conditions: 10 μM
Summary of the method: as §1

KM12 = assay: NCI 60 panel growth inhibition (SRB), colon cancer; conditions: KM12, 10 μM
Summary of the method: as §1

HCC-2998 = assay: NCI 60 panel growth inhibition (SRB), colon cancer; conditions: HCC-2998, 10 μM
Summary of the method: as §1

HCT-15 = assay: NCI 60 panel growth inhibition (SRB), colon cancer; conditions: HCT-15, 10 μM
Summary of the method: as §1

COLO 205 = assay: NCI 60 panel growth inhibition (SRB), colon cancer; conditions: COLO 205, 10 μM
Summary of the method: as §1

SW-620 = assay: NCI 60 panel growth inhibition (SRB), colon cancer; conditions: SW-620, 10 μM
Summary of the method: as §1

HCT-116 = assay: NCI 60 panel growth inhibition (SRB), colon cancer; conditions: HCT-116, 10 μM
Summary of the method: as §1

RXF 393 = assay: NCI 60 panel growth inhibition (SRB), renal cancer; conditions: RXF 393, 10 μM
Summary of the method: as §1

TK-10 = assay: NCI 60 panel growth inhibition (SRB), renal cancer; conditions: TK-10, 10 μM
Summary of the method: as §1

UO-31 = assay: NCI 60 panel growth inhibition (SRB), renal cancer; conditions: UO-31, 10 μM
Summary of the method: as §1

NCI-H23 = assay: NCI 60 panel growth inhibition (SRB), non-small cell lung cancer; conditions: NCI-H23, 10 μM
Summary of the method: as §1

A549/ATCC = assay: as above; conditions: 10 μM
Summary of the method: as §1

NCI-H460 = assay: as above; conditions: NCI-H460, 10 μM
Summary of the method: as §1

NCI-H322M = assay: as above; conditions: 10 μM
Summary of the method: as §1

EKVX = assay: as above; conditions: 10 μM
Summary of the method: as §1

HOP-92 = assay: as above; conditions: HOP-92, 10 μM
Summary of the method: as §1

NCI-H522 = assay: as above; conditions: NCI-H522, 10 μM
Summary of the method: as §1

NCI-H226 = assay: as above; conditions: NCI-H226, 10 μM
Summary of the method: as §1

HOP-62 = assay: as above; conditions: HOP-62, 10 μM
Summary of the method: as §1

SMILES	GI% (PC-3)	GI% (DU-145)	GI% (SK-MEL-5)	GI% (MDA-MB-435)	GI% (LOX IMVI)	GI% (UACC-62)	GI% (SK-MEL-28)	GI% (UACC-257)	GI% (MALME-3M)	GI% (M14)	GI% (MDA-MB-468)	GI% (HS 578T)	GI% (MCF7)	GI% (T-47D)	GI% (BT-549)	GI% (MDA-MB-231/ATCC)	GI% (KM12)	GI% (HCC-2998)	GI% (HCT-15)	GI% (COLO 205)	other results
O=C(COc1ccccc1-c1nc2ccccc2s1)NN=C1C(=O)Nc2ccc(Br)cc21 [Compound 9f, 2-(2-(Benzo[d]thiazol-2-yl)phenoxy)-N′-(5-bromo-2-oxoindolin-3-ylidene)acetohydrazide]	27.83%	14.27%	43.95%	14.63%	59.05%	25.55%	– (GI% < 5%)	13.04%	55.98%	8.00%	63.10%	75.23%	55.39%	60.76%	86.84%	55.33%	15.34%	11.62%	17.46%	– (GI% < 5%)	GI% (SW-620): – (GI% < 5%); GI% (HCT-116): 53.40%; GI% (RXF 393): 82.91%; GI% (TK-10): 55.14%; GI% (UO-31): 21.89%; GI% (NCI-H23): 40.56%; GI% (A549/ATCC): 29.34%; GI% (NCI-H460): 18.32%; GI% (NCI-H322M): 17.70%; GI% (EKVX): 19.72%; GI% (HOP-92): 51.76%; GI% (NCI-H522): 51.70%; GI% (NCI-H226): 106.99%; GI% (HOP-62): 74.09%
COc1ccc2c(c1)C(=NNC(=O)COc1ccccc1-c1nc3ccccc3s1)C(=O)N2 [Compound 9c, 2-(2-(Benzo[d]thiazol-2-yl)phenoxy)-N′-(5-methoxy-2-oxoindolin-3-ylidene)acetohydrazide]	43.83%	6.75%	44.97%	19.69%	9.06%	28.02%	– (GI% < 5%)	– (GI% < 5%)	13.58%	5.86%	29.51%	– (GI% < 5%)	18.66%	36.38%	18.71%	– (GI% < 5%)	15.67%	– (GI% < 5%)	40.05%	– (GI% < 5%)	GI% (SW-620): – (GI% < 5%); GI% (HCT-116): 18.17%; GI% (RXF 393): 23.06%; GI% (TK-10): – (GI% < 5%); GI% (UO-31): 35.66%; GI% (NCI-H23): 17.94%; GI% (A549/ATCC): 25.86%; GI% (NCI-H460): 6.01%; GI% (NCI-H322M): – (GI% < 5%); GI% (EKVX): 25.93%; GI% (HOP-92): – (GI% < 5%); GI% (NCI-H522): – (GI% < 5%); GI% (NCI-H226): 23.90%; GI% (HOP-62): – (GI% < 5%)
Cc1ccc2c(c1)C(=NNC(=O)COc1ccccc1-c1nc3ccccc3s1)C(=O)N2 [Compound 9b, 2-(2-(Benzo[d]thiazol-2-yl)phenoxy)-N′-(5-methyl-2-oxoindolin-3-ylidene)acetohydrazide]	22.82%	22.75%	62.70%	17.86%	84.01%	33.71%	– (GI% < 5%)	– (GI% < 5%)	57.82%	11.64%	90.93%	58.35%	64.25%	48.54%	50.79%	63.76%	18.69%	19.53%	31.29%	– (GI% < 5%)	GI% (SW-620): – (GI% < 5%); GI% (HCT-116): 53.56%; GI% (RXF 393): 134.59%; GI% (TK-10): 93.55%; GI% (UO-31): 27.53%; GI% (NCI-H23): 85.13%; GI% (A549/ATCC): 28.01%; GI% (NCI-H460): 34.24%; GI% (NCI-H322M): 19.44%; GI% (EKVX): 24.46%; GI% (HOP-92): 35.86%; GI% (NCI-H522): 37.21%; GI% (NCI-H226): 105.34%; GI% (HOP-62): 51.18%
O=C(COc1ccccc1-c1nc2ccccc2s1)NN=C1C(=O)Nc2ccccc21 [Compound 9a, 2-(2-(Benzo[d]thiazol-2-yl)phenoxy)-N′-(2-oxoindolin-3-ylidene)acetohydrazide]	19.26%	6.07%	13.43%	– (GI% < 5%)	– (GI% < 5%)	13.82%	– (GI% < 5%)	6.77%	– (GI% < 5%)	– (GI% < 5%)	– (GI% < 5%)	5.85%	25.11%	12.02%	– (GI% < 5%)	– (GI% < 5%)	6.23%	– (GI% < 5%)	8.99%	– (GI% < 5%)	GI% (SW-620): – (GI% < 5%); GI% (HCT-116): – (GI% < 5%); GI% (RXF 393): 5.86%; GI% (TK-10): – (GI% < 5%); GI% (UO-31): 26.54%; GI% (NCI-H23): 6.36%; GI% (A549/ATCC): 11.63%; GI% (NCI-H460): – (GI% < 5%); GI% (NCI-H322M): – (GI% < 5%); GI% (EKVX): 37.48%; GI% (HOP-92): 6.37%; GI% (NCI-H522): – (GI% < 5%); GI% (NCI-H226): 23.61%; GI% (HOP-62): – (GI% < 5%)
